Assays:
Format in all cases: functional
U-251 = assay: Growth inhibition of human U251 cells
NCI-H226 = assay: Growth inhibition of human NCI-H226 cells
MKN-74 = assay: Growth inhibition of human MKN74 cells
HCT-15 = assay: Growth inhibition of human HCT15 cells
HCC 2998 = assay: Growth inhibition of human HCC2998 cells
HT-29 = assay: Growth inhibition of human HT-29 cells
MDA-MB-231 = assay: Growth inhibition of human MDA-MB-231 cells
St-4 = assay: Growth inhibition of human St-4 cells
DU-145 = assay: Growth inhibition of human DU145 cells
LOX IMVI = assay: Growth inhibition of human LOXIMVI cells
SNB-78 = assay: Growth inhibition of human SNB78 cells
SF-268 = assay: Growth inhibition of human SF268 cells
MCF7 = assay: Growth inhibition of human MCF7 cells
[1] = Growth inhibition of human MKN1 cells
SF-295 = assay: Growth inhibition of human SF295 cells
MKN-45 = assay: Growth inhibition of human MKN45 cells
ACHN = assay: Growth inhibition of human ACHN cells
DMS-114 = assay: Growth inhibition of human DMS114 cells
A549 = assay: Growth inhibition of human A549 cells
NCI-H23 = assay: Growth inhibition of human NCI-H23 cells
OVCAR-4 = assay: Growth inhibition of human OVCAR4 cells
SK-OV-3 = assay: Growth inhibition of human SKOV3 cells
OVCAR-8 = assay: Growth inhibition of human OVCAR8 cells
OVCAR-5 = assay: Growth inhibition of human OVCAR5 cells
SF-539 = assay: Growth inhibition of human SF539 cells
[2] = Growth inhibition of human RXF631L cells
[3] = Growth inhibition of human HBC4 cells
DMS-273 = assay: Growth inhibition of human DMS273 cells
[4] = read-out: LC50 (the source's name)
[5] = read-out: pLC50 (the source's name) (converted)

With `CC(=O)O[C@H]1C[C@H]2OC[C@@]2(OC(C)=O)[C@H]2[C@H](OC(=O)c3ccccc3)[C@]3(O)C[C@H](O)C(C)=C([C@@H](O)[C@H](O)[C@]12C)C3(C)C` [TAXUSPINE E] the TGI (U-251) was > 100 µM, the GI50 (U-251; read-out: GI50) was 36 µM and the CC50 (U-251; [4]) was > 100 µM. The GI50 (U-251; read-out: pGI50 (converted)) was 36.3 µM, the GI50 (NCI-H226; read-out: GI50) was 32 µM and the CC50 (NCI-H226; [4]) was > 100 µM. The TGI (NCI-H226; read-out: TGI) was > 100 µM, the GI50 (NCI-H226; read-out: pGI50 (converted)) was 32.4 µM and the CC50 (NCI-H226; [5]) was 100 µM. The TGI (NCI-H226; read-out: pTGI (converted)) was 100 µM, the GI50 (MKN-74; read-out: GI50) was 30 µM and the CC50 (MKN-74; [4]) was > 100 µM. For the same compound, the TGI (MKN-74; read-out: TGI) was > 100 µM, the GI50 (MKN-74; read-out: pGI50 (converted)) was 30.2 µM and the CC50 (MKN-74; [5]) was 100 µM. The TGI (MKN-74; read-out: pTGI (converted)) was 100 µM, the GI50 (HCT-15; read-out: GI50) was 32 µM and the CC50 (HCT-15; [4]) was > 100 µM. The TGI (HCT-15; read-out: TGI) was > 100 µM, the GI50 (HCT-15; read-out: pGI50 (converted)) was 32.4 µM and the CC50 (HCT-15; [5]) was 100 µM. For the same compound, the TGI (HCT-15; read-out: pTGI (converted)) was 100 µM, the TGI (HCC 2998) was > 100 µM and the GI50 (HCC 2998; read-out: GI50) was 27 µM. For the same compound, the CC50 (HCC 2998; [4]) was > 100 µM, the GI50 (HCC 2998; read-out: pGI50 (converted)) was 27.5 µM and the GI50 (HT-29; read-out: GI50) was 28 µM. For the same compound, the CC50 (HT-29; [4]) was > 100 µM, the TGI (HT-29; read-out: TGI) was > 100 µM and the GI50 (HT-29; read-out: pGI50 (converted)) was 27.5 µM. The TGI (HT-29; read-out: pTGI (converted)) was 100 µM, the GI50 (MDA-MB-231; read-out: GI50) was 18 µM and the CC50 (MDA-MB-231; [4]) was > 100 µM. The GI50 (MDA-MB-231; read-out: pGI50 (converted)) was 18.2 µM, the CC50 (MDA-MB-231; [5]) was 100 µM and the TGI (MDA-MB-231; read-out: pTGI (converted)) was 100 µM. The GI50 (St-4; read-out: GI50) was 33 µM, the CC50 (St-4; [4]) was > 100 µM and the TGI (St-4; read-out: TGI) was > 100 µM. For the same compound, the GI50 (St-4; read-out: pGI50 (converted)) was 33.1 µM, the CC50 (St-4; [5]) was 100 µM and the TGI (St-4; read-out: pTGI (converted)) was 100 µM. The TGI (DU-145) was > 100 µM, the GI50 (DU-145; read-out: GI50) was 33 µM and the CC50 (DU-145; [4]) was > 100 µM. It also gave a GI50 (DU-145; read-out: pGI50 (converted)) of 32.4 µM, a CC50 (DU-145; [5]) of 100 µM and a GI50 (LOX IMVI; read-out: GI50) of 35 µM. The CC50 (LOX IMVI; [4]) was > 100 µM, the TGI (LOX IMVI; read-out: TGI) was > 100 µM and the GI50 (LOX IMVI; read-out: pGI50 (converted)) was 34.7 µM. For the same compound, the TGI (LOX IMVI; read-out: pTGI (converted)) was 100 µM, the GI50 (SNB-78; read-out: GI50) was 50 µM and the CC50 (SNB-78; [4]) was > 100 µM. For the same compound, the TGI (SNB-78; read-out: TGI) was > 100 µM, the GI50 (SNB-78; read-out: pGI50 (converted)) was 50.1 µM and the CC50 (SNB-78; [5]) was 100 µM. The TGI (SNB-78; read-out: pTGI (converted)) was 100 µM, the TGI (SF-268) was > 100 µM and the GI50 (SF-268; read-out: GI50) was 74 µM. For the same compound, the CC50 (SF-268; [4]) was > 100 µM, the GI50 (SF-268; read-out: pGI50 (converted)) was 74.1 µM and the CC50 (SF-268; [5]) was 100 µM. The GI50 (MCF7; read-out: GI50) was 24 µM, the CC50 (MCF7; [4]) was > 100 µM and the TGI (MCF7; read-out: TGI) was 93 µM. The GI50 (MCF7; read-out: pGI50 (converted)) was 24 µM, the CC50 (MCF7; [5]) was 100 µM and the TGI (MCF7; read-out: pTGI (converted)) was 93.3 µM. For the same compound, the GI50 ([1]; MKN-1, read-out: GI50) was 49 µM, the CC50 ([1]; MKN-1, read-out: LC50 (the source's name)) was > 100 µM and the TGI ([1]; MKN-1, read-out: TGI) was > 100 µM. For the same compound, the GI50 ([1]; MKN-1, read-out: pGI50 (converted)) was 49 µM, the CC50 ([1]; MKN-1, read-out: pLC50 (the source's name) (converted)) was 100 µM and the TGI ([1]; MKN-1, read-out: pTGI (converted)) was 100 µM. The GI50 (SF-295; read-out: GI50) was 21 µM, the CC50 (SF-295; [4]) was > 100 µM and the TGI (SF-295; read-out: TGI) was > 100 µM. The GI50 (SF-295; read-out: pGI50 (converted)) was 21.4 µM, the TGI (SF-295; read-out: pTGI (converted)) was 100 µM and the GI50 (MKN-45; read-out: GI50) was 27 µM. The CC50 (MKN-45; [4]) was > 100 µM, the TGI (MKN-45; read-out: TGI) was > 100 µM and the GI50 (MKN-45; read-out: pGI50 (converted)) was 26.9 µM. For the same compound, the CC50 (MKN-45; [5]) was 100 µM, the TGI (MKN-45; read-out: pTGI (converted)) was 100 µM and the GI50 (ACHN; read-out: GI50) was 28 µM. The CC50 (ACHN; [4]) was > 100 µM, the TGI (ACHN; read-out: TGI) was > 100 µM and the GI50 (ACHN; read-out: pGI50 (converted)) was 28.2 µM. For the same compound, the TGI (ACHN; read-out: pTGI (converted)) was 100 µM, the GI50 (DMS-114; read-out: GI50) was 10 µM and the CC50 (DMS-114; [4]) was > 100 µM. It also gave a TGI (DMS-114; read-out: TGI) of 57 µM, a GI50 (DMS-114; read-out: pGI50 (converted)) of 10 µM and a TGI (DMS-114; read-out: pTGI (converted)) of 57.5 µM. For the same compound, the GI50 (A549; read-out: GI50) was 30 µM, the CC50 (A549; [4]) was 100 µM and the TGI (A549; read-out: TGI) was > 100 µM. For the same compound, the GI50 (A549; read-out: pGI50 (converted)) was 30.2 µM, the CC50 (A549; [5]) was 100 µM and the TGI (A549; read-out: pTGI (converted)) was 100 µM. It also gave a GI50 (NCI-H23; read-out: GI50) of 23 µM, a CC50 (NCI-H23; [4]) of 100 µM and a TGI (NCI-H23; read-out: TGI) of 69 µM. For the same compound, the GI50 (NCI-H23; read-out: pGI50 (converted)) was 22.9 µM, the CC50 (NCI-H23; [5]) was 100 µM and the TGI (NCI-H23; read-out: pTGI (converted)) was 69.2 µM. For the same compound, the GI50 (OVCAR-4; read-out: GI50) was 21 µM, the CC50 (OVCAR-4; [4]) was > 100 µM and the TGI (OVCAR-4; read-out: TGI) was > 100 µM. It also gave a GI50 (OVCAR-4; read-out: pGI50 (converted)) of 21.4 µM, a CC50 (OVCAR-4; [5]) of 100 µM and a TGI (OVCAR-4; read-out: pTGI (converted)) of 100 µM. For the same compound, the GI50 (SK-OV-3; read-out: GI50) was 68 µM, the CC50 (SK-OV-3; [4]) was > 100 µM and the TGI (SK-OV-3; read-out: TGI) was 100 µM. The GI50 (SK-OV-3; read-out: pGI50 (converted)) was 69.2 µM, the CC50 (SK-OV-3; [5]) was 100 µM and the TGI (SK-OV-3; read-out: pTGI (converted)) was 100 µM. For the same compound, the GI50 (OVCAR-8; read-out: GI50) was 37 µM, the CC50 (OVCAR-8; [4]) was > 100 µM and the TGI (OVCAR-8; read-out: TGI) was 100 µM. It also gave a GI50 (OVCAR-8; read-out: pGI50 (converted)) of 37.2 µM, a CC50 (OVCAR-8; [5]) of 100 µM and a TGI (OVCAR-8; read-out: pTGI (converted)) of 100 µM. For the same compound, the GI50 (OVCAR-5; read-out: GI50) was 48 µM, the CC50 (OVCAR-5; [4]) was > 100 µM and the TGI (OVCAR-5; read-out: TGI) was > 100 µM. The GI50 (OVCAR-5; read-out: pGI50 (converted)) was 47.9 µM, the CC50 (OVCAR-5; [5]) was 100 µM and the TGI (OVCAR-5; read-out: pTGI (converted)) was 100 µM. The GI50 (SF-539; read-out: GI50) was 45 µM, the CC50 (SF-539; [4]) was > 100 µM and the TGI (SF-539; read-out: TGI) was > 100 µM. For the same compound, the GI50 (SF-539; read-out: pGI50 (converted)) was 44.7 µM, the CC50 (SF-539; [5]) was 100 µM and the TGI (SF-539; read-out: pTGI (converted)) was 100 µM. For the same compound, the TGI ([2]; RXF 631) was > 100 µM, the GI50 ([2]; RXF 631, read-out: GI50) was 25 µM and the CC50 ([2]; RXF 631, read-out: LC50 (the source's name)) was 5100 µM. It also gave a GI50 ([2]; RXF 631, read-out: pGI50 (converted)) of 24.5 µM, a CC50 ([2]; RXF 631, read-out: pLC50 (the source's name) (converted)) of 100 µM and a GI50 ([3]; read-out: GI50) of 72 µM. The CC50 [3, 4] was > 100 µM, the TGI ([3]; read-out: TGI) was > 100 µM and the GI50 ([3]; read-out: pGI50 (converted)) was 72.4 µM. The TGI ([3]; read-out: pTGI (converted)) was 100 µM, the GI50 (DMS-273; read-out: GI50) was 22 µM and the CC50 (DMS-273; [4]) was > 100 µM. For the same compound, the TGI (DMS-273; read-out: TGI) was > 100 µM, the GI50 (DMS-273; read-out: pGI50 (converted)) was 22.4 µM and the TGI (DMS-273; read-out: pTGI (converted)) was 100 µM.
